Experimental data reported in patent publication US20240246946A1, “MODULATORS OF TREX1” (Constellation Pharmaceuticals, Inc., priority 2021, published 2024).

Tests used:
full length human TREX1 = biological target: T1, full length human TREX1 (Homo sapiens, UniProt Q9NSU2); assay: hTREX1 Biochemical Assay (fluorescence, dsDNA substrate degradation); details: biochemical, read-out: hTREX1 IC50
T1 construct: N-terminally His-Tev tagged full length human TREX1; made in house; host or cells: E. coli
T1 sequence (Q9NSU2 1-314): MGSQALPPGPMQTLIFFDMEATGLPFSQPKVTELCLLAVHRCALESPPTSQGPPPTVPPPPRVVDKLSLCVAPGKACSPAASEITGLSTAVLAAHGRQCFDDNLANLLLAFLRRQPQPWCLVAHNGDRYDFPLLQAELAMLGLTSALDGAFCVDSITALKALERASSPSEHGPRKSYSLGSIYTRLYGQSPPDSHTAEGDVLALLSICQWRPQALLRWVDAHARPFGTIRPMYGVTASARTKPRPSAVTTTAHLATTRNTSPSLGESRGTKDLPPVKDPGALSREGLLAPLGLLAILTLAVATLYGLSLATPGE
Method in brief: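 Fluorescence rises as enzyme degrades a quenched TEX615-labelled dsDNA substrate (60 nM) in 50 mM Tris, 150 mM NaCl, 5 mM MgCl2, pH 7.4. Full-length His-Tev-tagged human TREX1, 4 pM, sits with compound 4 hours at 25° C before substrate; reaction 18 hours, stopped with EDTA.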

[1] = biological target: T2, human TREX2 (residues M44-A279) (Homo sapiens, UniProt Q9BQ50); assay: hTREX2 Biochemical Assay (fluorescence, dsDNA substrate degradation); details: biochemical selectivity for hTREX1 vs hTREX2
T2 construct: human TREX2 (residues M44-A279, expressed in E. coli); made in house; host or cells: E. coli
T2 sequence (Q9BQ50 44-279 isoform Q9BQ50-1): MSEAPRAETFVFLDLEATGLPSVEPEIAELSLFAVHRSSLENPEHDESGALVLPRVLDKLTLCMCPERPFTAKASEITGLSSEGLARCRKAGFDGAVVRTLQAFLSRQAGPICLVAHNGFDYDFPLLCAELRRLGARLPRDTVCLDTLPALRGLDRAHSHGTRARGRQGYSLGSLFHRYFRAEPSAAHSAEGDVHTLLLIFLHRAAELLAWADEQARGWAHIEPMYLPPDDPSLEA
Method in brief: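 Fluorogenic dsDNA degradation read at 615 nm (570 nm excitation) after EDTA quench. Final 60 nM substrate, 50 pM His-Tev-tagged enzyme, 5 mM MgCl2, pH 7.4, 1.0% DMSO; 4 h compound–enzyme preincubation then 18 h reaction, both 25 °C; 10-point titration.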

hTREX1 = biological target: T3, hTREX1 (Homo sapiens, UniProt Q9NSU2); assay: hTREX1 HCT116 Cell Assay (HCT116 dual cells, Lucia luciferase reporter of Type I interferon induction); assay type: cell-based; details: TREX1i 4 h before pBR322/BstNI transfection, read after 48 h
T3 construct: host or cells: HCT116 dual cells
T3 sequence (Q9NSU2 1-314): T1 sequence (Q9NSU2 1-314)
Method in brief: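 Type I interferon induction read as secreted Lucia luciferase 48 h after transfecting pBR322/BstNI digest (1 ug/mL, 100 ng/well) into HCT116 dual reporter cells. Compound added 4 h before transfection at up to 0.1% DMSO; cells in DMEM/10% FBS/25 mM HEPES at 37 °C.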

full length mouse TREX1 = biological target: T4, full length mouse TREX1 (Mus musculus, UniProt Q91XB0); assay: mTREX1 Biochemical Assay (fluorescence, dsDNA substrate degradation); details: biochemical, read-out: mTREX1 IC50
T4 construct: N-terminally His-Tev tagged full length mouse TREX1; made in house; host or cells: E. coli
T4 sequence (Q91XB0 1-314): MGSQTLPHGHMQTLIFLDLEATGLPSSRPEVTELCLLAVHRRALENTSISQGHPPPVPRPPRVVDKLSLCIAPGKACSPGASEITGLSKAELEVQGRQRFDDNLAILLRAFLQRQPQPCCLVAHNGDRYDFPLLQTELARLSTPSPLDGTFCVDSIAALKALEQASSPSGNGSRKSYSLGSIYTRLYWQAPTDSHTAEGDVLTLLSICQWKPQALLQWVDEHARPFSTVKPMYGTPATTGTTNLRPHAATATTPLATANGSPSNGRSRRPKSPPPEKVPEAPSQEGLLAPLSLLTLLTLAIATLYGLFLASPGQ
Method in brief: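 Reaction run 18 h at 25° C. with 60 nM TEX615/quencher-labelled dsDNA and 6 pM mouse TREX1 in Tris buffer (pH 7.4, 5 mM MgCl2, 1.0% DMSO), enzyme having sat 4 h with compound across 10 concentrations. EDTA quench; substrate degradation measured as fluorescence increase.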

| Compound | IC50 (full length human TREX1) | hTREX1 vs hTREX2 selectivity [1] | IC50 (hTREX1) | IC50 (full length mouse TREX1) |
| --- | --- | --- | --- | --- |
| Cc1nn(C)cc1C(c1ccccc1C#N)C(C)c1nc(C(=O)Nc2cnoc2)c(O)c(=O)n1C (single isomer, unassigned) [Example 3 D1E1] | < 1 nM | C (C = >50 fold selective for hTREX1) | < 10 nM | < 1 nM |
| CC(c1nc(C(=O)Nc2cnoc2)c(O)c(=O)n1C)C(c1cnn(C(F)(F)F)c1)c1ccccc1C#N (single isomer, unassigned) [Example 151 D1E1] | < 1 nM | B (B = 25 to 50-fold selective for hTREX1) | 10 to 100 nM | < 1 nM |
| Cc1cc(C(c2ccccc2C#N)C(C)c2nc(C(=O)Nc3cnoc3)c(O)c(=O)n2C)ccn1 (single isomer, unassigned) [Example 6 D1E2] | 1 to 10 nM | B (B = 25 to 50-fold selective for hTREX1) | > 100 nM | > 10 nM |
| CC(c1nc(C(=O)Nc2cnoc2)c(O)c(=O)n1C)C(c1cnn(C)c1)c1ccc(O)cc1C#N (single isomer, unassigned) [Example 80 D1E1] | < 1 nM | C (C = >50 fold selective for hTREX1) | > 100 nM | 1 to 10 nM |
| CC(c1nc(C(=O)Nc2cnoc2)c(O)c(=O)n1C)C(c1cnn(CCO)c1)c1ccccc1C#N (single isomer, unassigned) [Example 35 D1E1] | < 1 nM | C (C = >50 fold selective for hTREX1) | > 100 nM | 1 to 10 nM |
| Cc1cnc(C(c2ccccc2C#N)C(C)c2nc(C(=O)Nc3cnoc3)c(O)c(=O)n2C)c(C)n1 (single isomer, unassigned) [Example 123 D1E1] | 1 to 10 nM | C (C = >50 fold selective for hTREX1) | > 100 nM | 1 to 10 nM |
| CC(c1nc(C(=O)Nc2cnoc2)c(O)c(=O)n1C)C(c1cnn(CC2COC2)c1)c1cc(F)ccc1Cl (single isomer, unassigned) [Example 94 D1E1] | 1 to 10 nM | B (B = 25 to 50-fold selective for hTREX1) | > 100 nM | 1 to 10 nM |
| Cc1nccc(C(c2ccccc2C#N)C(C)c2nc(C(=O)Nc3cnoc3)c(O)c(=O)n2C)n1 (single isomer, unassigned) [Example 83 D1E1] | < 1 nM | C (C = >50 fold selective for hTREX1) | 10 to 100 nM | > 10 nM |
| CC(c1nc(C(=O)Nc2cnoc2)c(O)c(=O)n1C)C(c1ccccc1)c1cccnc1C#N (single isomer, unassigned) [Example 155 D1E2] | 1 to 10 nM | C (C = >50 fold selective for hTREX1) | > 100 nM | 1 to 10 nM |
| CC(c1nc(C(=O)Nc2cnoc2)c(O)c(=O)n1C)C(c1cnn(C)c1)c1ccccc1C#N (single isomer, unassigned) [Example 2 D1E2] | > 10 nM | A (A = <25 fold selective for hTREX1) | > 100 nM | > 10 nM |
| Cc1cnc(C(c2cc(F)ccc2Cl)C(C)c2nc(C(=O)Nc3cnoc3)c(O)c(=O)n2C)cn1 (single isomer, unassigned) [Example 117 D2E1] | 1 to 10 nM | A (A = <25 fold selective for hTREX1) | > 100 nM | > 10 nM |
| Cc1nn(C)cc1C(c1cc(F)ccc1C#N)C(C)c1nc(C(=O)Nc2cnoc2)c(O)c(=O)n1C (single isomer, unassigned) [Example 57 D1E1] | 1 to 10 nM | C (C = >50 fold selective for hTREX1) | 10 to 100 nM | > 10 nM |
